These are literature values, as cited in US20190160058A1, “METHODS OF TREATMENT WITH SELECTIVE CB2 RECEPTOR AGONISTS” (Arena Pharmaceuticals, Inc., priority 2016, published 2019).

In data set [1] the test system is bone marrow-derived osteoblasts/stromal cells. To be noted: in vitro; cited from earlier work.
In data set [2] the test system is ovariectomy-induced bone loss. To be noted: in vivo; cited from earlier work.
The next data set has as its system EAE mouse model. To be noted: in vivo; cited from earlier work.
For data set [3], the system named is bovine nasal cartilage explants. The following applies: in vitro; cited from earlier work.
A further data set relates to mice. The following applies: cited from earlier work.
The next data set relates to conscious guinea-pigs. To be noted: given prior to exposure to citric acid; cited from earlier work.
In data set [4] the test system is human vagus nerve preparations. The following applies: in vitro; cited from earlier work.
The test system of data set [5] is guinea pig vagus nerve preparations. The following applies: in vitro; cited from earlier work.
The subject of data set [6] is LPS-induced bladder inflammation. The following applies: in vivo; cited from earlier work.
The next data set has as its system RPE cells. The following applies: cited from earlier work.
Another data set deals with ApoE knockout mice. The following applies: mouse, in vivo; cited from earlier work.
Data set [7] concerns mouse model for allergic contact dermatitis. To be noted: subcutaneous injection; cited from earlier work.
For the next data set, the system named is guinea pigs. The following applies: cited from earlier work.

Molecules are shown by their SMILES.

In the case of `CCCCCCC(C)(C)c1cc(OC)c([C@@H]2C=C(CO)[C@@H]3C[C@H]2C3(C)C)c(OC)c1` [HU-308], the “osteoblast numbers and activity, osteoclast precursor proliferation” value in data set [1] is “enhances endocortical osteoblast numbers and activity while simultaneously inhibiting proliferation of osteoclast precursors”. For the same compound, in data set [2], the “bone loss and cortical thickness” value is “attenuates ovariectomy-induced bone loss and stimulates cortical thickness”. In the data set with EAE mouse model, the “cell recruitment, proliferation and axonal loss” value was “markedly reduces the recruitment of immature myeloid cells and T cells, microglial and infiltrating myeloid cell proliferation, and axonal loss”.
In the case of `Cc1c(C(=O)c2cccc3ccccc23)c2cccc3c2n1[C@H](CN1CCOCC1)CO3` [WIN 55212-2], the “IL-1alpha-stimulated proteoglycan and collagen degradation” value in data set [3] is “significantly inhibit”. Further, the “number of capsaicin-induced coughs” value with mice is reported as “dose-dependent inhibition”. Besides, in the data set on EAE mouse model, the “leukocyte rolling and adhesion in the brain” value was “significantly inhibits leukocyte rolling and adhesion in the brain”.
Regarding `CCCC(C)(C)c1ccc2c(c1)OC(C)(C)[C@@H]1CC=C(C)C[C@@H]21` [JWH133], in the data set with conscious guinea-pigs, the cough entry is on record as “significantly reduces cough”. The “capsaicin-, PGE2-, and hypertonic saline-induced depolarization” value in [4] is “reduces capsaicin-, PGE2-, and hypertonic saline-induced depolarization”; in data set [5] it was “reduces capsaicin-, PGE2-, and hypertonic saline-induced depolarization”.
Consider `CCCn1c(C)c(C(=O)c2cccc3ccccc23)c2ccccc21` [JWHO15], for which the LPS-induced bladder inflammation entry in data set [6] is “antagonize LPS-induced bladder inflammation”. Also, in the data set with RPE cells, the “protection from oxidative damage” value is on record as “provides comparable protection”.
In the case of `CCCCCc1cc(O)c2c(c1)OC(C)(C)[C@@H]1CCC(C)=C[C@@H]21` [THC], in the data set with ApoE knockout mice, the progression of atherosclerosis result was “reduces the progression of atherosclerosis”. Also, the “cutaneous inflammation and pruritus (itch)” value in [7] is “reduces cutaneous inflammation and the pruritus (itch)”. Also, the “severity of clinical disease” value with EAE mouse model was “significantly inhibits the severity of clinical disease”.
On to `CCCCC/C=C\C/C=C\C/C=C\C/C=C\CCCC(=O)NCCO` [anandamide], for which, in the data set on guinea pigs, the “number of capsaicin-induced coughs” value is listed as “dose-dependent inhibition”.
